Test results published in patent publication US20050239656A1, “Pyridine compounds or salts thereof and herbicides containing the same” (priority 2002, published 2005).

Test system: corn
Test: Test Example 1: foliage treatment, upland pot test
Type: in vivo, Zea mays L.
Settings: crop, active ingredient 1000 g/ha, observed 18th to 23rd day, 0 = non-treated, 100 = complete kill
Summary of the method: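 In this upland pot foliage test, corn plants at 2.1 to 3.2 leaf stages were sprayed by a small size sprayer. The spray was a conventionally formulated wettable powder or emulsifiable concentrate weighed to a set active ingredient amount, diluted in water at 500 L/ha, plus 0.1% (v/v) agricultural spreader. Visual assessment on days 18 to 23 gave growth controlling degree (%), where 0 equals untreated and 100 means complete kill.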

Compound | Growth controlling degree (%) Corn
CC(C)C(c1cnccc1C(F)(F)F)N(C)C(=O)Cc1cccc(Br)c1 (stereo not shown) [I-16] | 0%

Test system: tall morningglory
Test: Test Example 1: foliage treatment, upland pot test
Type: in vivo, Ipomoea purpurea L.
Settings: active ingredient 1000 g/ha, observed 18th to 23rd day, 0 = non-treated, 100 = complete kill
Description: Upland field soil was put into a 1/170,000 ha pot, and seed of various plants were sown. Then, when the plants reached predetermined leaf stages ((1) barnyardgrass: 1.3 to 2.8 leaf stages, (2) crabgrass: 1.0 to 2.8 leaf stages, (3) green foxtail: 1.3 to 2.6 leaf stages, (4) redroot pigweed: 0.1 to 1.2 leaf stages, (5) prickly sida: 0.1 to 1.2 leaf stages, (6) velvetleaf: 0.1 to 1.2 leaf stages, (7) tall morningglory: 0.1 to 1.5 leaf stages, (8) rice: 1.2 to 2.6 leaf stages, (9) wheat: 1.3 to 2.4 leaf stages, (10) corn, 2.1 to 3.2 leaf stages, (11) soybean: 0.1 to 0.4 leaf stage), a wettable powder or emulsifiable concentrate having the compound of the present invention formulated in accordance with a usual formulation method, was weighed so that the active ingredient would be a predetermined amount, and diluted with water in an amount of 500 L/ha. To the diluted solution, 0.1% (v/v) of agricultural spreader was added. The herbicide thus adjusted was applied by a small size sprayer for foliage treatment. On the 18th to 23rd days after the application of the herbicide, the growth of the respective plants was visually observed, and the herbicidal effects were evaluated by the growth controlling degrees (%) ranging from 0 (equivalent to the non-treated plot) to 100 (complete kill), whereby the results shown in Table 3, were obtained.

Compound | Growth controlling degree (%) Tall morningglory
CC(C)C(c1cnccc1C(F)(F)F)N(C)C(=O)Cc1cccc(Br)c1 (stereo not shown) [I-16] | 80%

Test system: wheat
Test: Test Example 2: soil surface treatment, upland pot test
Type: in vivo, Triticum spp.
Settings: active ingredient 1000 g/ha, observed 20th to 28th day
Summary of the method: (§1)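 Upland soil in pots of 1/170,000 ha is sown; on day 1 after sowing the formulated compound (wettable powder or emulsifiable concentrate, predetermined a.i. amount, water volume 1,500 L/ha) is applied to the soil surface with a small sprayer. Percent control is judged by eye 20–28 days later.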

Compound | Growth controlling degree (%) wheat
CC(C)C(c1cnccc1C(F)(F)F)N(C)C(=O)Cc1cccc(Br)c1 (stereo not shown) [I-16] | 30%

Test system: velvetleaf
Test: Test Example 1: foliage treatment, upland pot test
Type: in vivo, Abutilon theophrasti MEDIC.
Settings: active ingredient 1000 g/ha, observed 18th to 23rd day, 0 = non-treated, 100 = complete kill

Compound | Growth controlling degree (%) Velvetleaf
CC(C)C(c1cnccc1C(F)(F)F)N(C)C(=O)Cc1cccc(Br)c1 (stereo not shown) [I-16] | 80%

Test system: rice (var. Nihonbare)
Test: Test Example 3: paddy pot test, transplanted rice
Type: in vivo, Oryza sativa L.
Settings: active ingredient 250 g/ha, applied 4th day after transplantation, visually observed 21st day after application, 0 = non-treated, 100 = complete kill
Summary of the method: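 Rice (2-leaf stage) was transplanted 3 cm deep into puddled, leveled paddy soil under 3–4 cm flooding. On day 4 after transplanting, diluted wettable powder or emulsifiable concentrate was pipetted onto the water at a predetermined active-ingredient dose. Growth control (0 = untreated, 100 = complete kill) was scored visually 21 days later.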

Compound | Growth controlling degree (%) Rice
CC(C)C(c1cnccc1C(F)(F)F)N(C)C(=O)Cc1cccc(Br)c1 (stereo not shown) [I-16] | 10%

Test system: crabgrass
Test: Test Example 1: foliage treatment, upland pot test
Type: in vivo, Digitaria sanguinalis L.
Settings: active ingredient 1000 g/ha, observed 18th to 23rd day, 0 = non-treated, 100 = complete kill

Compound | Growth controlling degree (%) Crabgrass
CC(C)C(c1cnccc1C(F)(F)F)N(C)C(=O)Cc1cccc(Br)c1 (stereo not shown) [I-16] | 80%

Test system: barnyardgrass
Test: Test Example 3: paddy pot test, application under submerged conditions
Type: in vivo, Echinochloa crus-galli L.
Settings: active ingredient 250 g/ha; submerged application at 0.5 leaf stage; visually observed 14 days after application; 0 = non-treated, 100 = complete kill
Summary of the method: (§2)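 After sowing seeds and planting wapato tubers in flooded paddy soil, an aqueous dilution of the formulated compound was added to the 3–4 cm flood water at early leaf stage. Percent growth control relative to the untreated plot was assessed visually on day 14.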

Compound | Growth controlling degree (%) Barnyardgrass
CC(C)C(c1cnccc1C(F)(F)F)N(C)C(=O)Cc1cccc(Br)c1 (stereo not shown) [I-16] | 100%

Test system: corn
Test: Test Example 2: soil surface treatment, upland pot test
Type: in vivo, Zea mays L.
Settings: active ingredient 1000 g/ha, observed 20th to 28th day
Summary of the method: as §1

Compound | Growth controlling degree (%) Corn
CC(C)C(c1cnccc1C(F)(F)F)N(C)C(=O)Cc1cccc(Br)c1 (stereo not shown) [I-16] | 30%

Test system: redroot pigweed
Test: as above
Type: in vivo, Amaranthus retroflexus L.
Settings: active ingredient 1000 g/ha, observed 20th to 28th day
Summary of the method: as §1

Compound | Growth controlling degree (%) Redroot pigweed
CC(C)C(c1cnccc1C(F)(F)F)N(C)C(=O)Cc1cccc(Br)c1 (stereo not shown) [I-16] | 95%

Test system: soybean
Test: Test Example 1: foliage treatment, upland pot test
Type: in vivo, Glycine max Merr.
Settings: crop, active ingredient 1000 g/ha, observed 18th to 23rd day, 0 = non-treated, 100 = complete kill
Summary of the method: (§3)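 Each plant species was sprayed once on its foliage, with wheat at 1.3–2.4, soybean at 0.1–0.4, barnyardgrass at 1.3–2.8 and rice at 1.2–2.6 leaves. Visual ratings of growth inhibition, 0 to 100%, followed 18–23 days later.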

Compound | Growth controlling degree (%) Soybean
CC(C)C(c1cnccc1C(F)(F)F)N(C)C(=O)Cc1cccc(Br)c1 (stereo not shown) [I-16] | 70%

Test system: green foxtail
Test: Test Example 2: soil surface treatment, upland pot test
Type: in vivo, Setaria viridis L.
Settings: active ingredient 1000 g/ha, observed 20th to 28th day
Summary of the method: as §1

Compound | Growth controlling degree (%) Green foxtail
CC(C)C(c1cnccc1C(F)(F)F)N(C)C(=O)Cc1cccc(Br)c1 (stereo not shown) [I-16] | 100%

Test system: japanese ribbon wapato
Test: Test Example 3: paddy pot test, application under submerged conditions
Type: in vivo, Sagittaria pygniaea
Settings: active ingredient 250 g/ha; submerged application at primary leaf stage; visually observed 14 days after application; 0 = non-treated, 100 = complete kill
Summary of the method: as §2

Compound | Growth controlling degree (%) Japanese ribbon wapato
CC(C)C(c1cnccc1C(F)(F)F)N(C)C(=O)Cc1cccc(Br)c1 (stereo not shown) [I-16] | 30%

Test system: wheat
Test: Test Example 1: foliage treatment, upland pot test
Type: in vivo, Triticum spp.
Settings: crop, active ingredient 1000 g/ha, observed 18th to 23rd day, 0 = non-treated, 100 = complete kill
Summary of the method: as §3

Compound | Growth controlling degree (%) wheat
CC(C)C(c1cnccc1C(F)(F)F)N(C)C(=O)Cc1cccc(Br)c1 (stereo not shown) [I-16] | 40%

Test system: prickly sida
Test: Test Example 2: soil surface treatment, upland pot test
Type: in vivo, Sida spinosa L.
Settings: active ingredient 1000 g/ha, observed 20th to 28th day
Summary of the method: as §1

Compound | Growth controlling degree (%) Prickly sida
CC(C)C(c1cnccc1C(F)(F)F)N(C)C(=O)Cc1cccc(Br)c1 (stereo not shown) [I-16] | 80%

Test system: japanese bulrush
Test: Test Example 3: paddy pot test, application under submerged conditions
Type: in vivo, Scirpus juncoides
Settings: active ingredient 250 g/ha; submerged application at 0.5 leaf stage; visually observed 14 days after application; 0 = non-treated, 100 = complete kill
Summary of the method: as §2

Compound | Growth controlling degree (%) Japanese bulrush
CC(C)C(c1cnccc1C(F)(F)F)N(C)C(=O)Cc1cccc(Br)c1 (stereo not shown) [I-16] | 90%

Test system: barnyardgrass
Test: Test Example 1: foliage treatment, upland pot test
Type: in vivo, Echinochloa crus-galli L.
Settings: active ingredient 1000 g/ha, observed 18th to 23rd day, 0 = non-treated, 100 = complete kill
Summary of the method: as §3

Compound | Growth controlling degree (%) Barnyardgrass
CC(C)C(c1cnccc1C(F)(F)F)N(C)C(=O)Cc1cccc(Br)c1 (stereo not shown) [I-16] | 70%

Test system: velvetleaf
Test: Test Example 2: soil surface treatment, upland pot test
Type: in vivo, Abutilon theophrasti MEDIC.
Settings: active ingredient 1000 g/ha, observed 20th to 28th day
Summary of the method: as §1

Compound | Growth controlling degree (%) Velvetleaf
CC(C)C(c1cnccc1C(F)(F)F)N(C)C(=O)Cc1cccc(Br)c1 (stereo not shown) [I-16] | 60%

Test system: rice
Test: as above
Type: in vivo, Oryza sativa L.
Settings: active ingredient 1000 g/ha, observed 20th to 28th day
Summary of the method: as §1

Compound | Growth controlling degree (%) Rice
CC(C)C(c1cnccc1C(F)(F)F)N(C)C(=O)Cc1cccc(Br)c1 (stereo not shown) [I-16] | 30%

Test system: barnyardgrass
Test: as above
Type: in vivo, Echinochloa crus-galli L.
Settings: active ingredient 1000 g/ha, observed 20th to 28th day, 0 = non-treated, 100 = complete kill
Summary of the method: as §1

Compound | Growth controlling degree (%) Barnyardgrass
CC(C)C(c1cnccc1C(F)(F)F)N(C)C(=O)Cc1cccc(Br)c1 (stereo not shown) [I-16] | 98%

Test system: rice
Test: Test Example 1: foliage treatment, upland pot test
Type: in vivo, Oryza sativa L.
Settings: crop, active ingredient 1000 g/ha, observed 18th to 23rd day, 0 = non-treated, 100 = complete kill
Summary of the method: as §3

Compound | Growth controlling degree (%) Rice
CC(C)C(c1cnccc1C(F)(F)F)N(C)C(=O)Cc1cccc(Br)c1 (stereo not shown) [I-16] | 10%

Test system: green foxtail
Test: Test Example 1: foliage treatment, upland pot test
Type: in vivo, Setaria viridis L.
Settings: active ingredient 1000 g/ha, observed 18th to 23rd day, 0 = non-treated, 100 = complete kill

Compound | Growth controlling degree (%) Green foxtail
CC(C)C(c1cnccc1C(F)(F)F)N(C)C(=O)Cc1cccc(Br)c1 (stereo not shown) [I-16] | 70%

Test system: redroot pigweed
Test: Test Example 1: foliage treatment, upland pot test
Type: in vivo, Amaranthus retroflexus L.
Settings: active ingredient 1000 g/ha, observed 18th to 23rd day, 0 = non-treated, 100 = complete kill

Compound | Growth controlling degree (%) Redroot pigweed
CC(C)C(c1cnccc1C(F)(F)F)N(C)C(=O)Cc1cccc(Br)c1 (stereo not shown) [I-16] | 80%

Test system: prickly sida
Test: Test Example 1: foliage treatment, upland pot test
Type: in vivo, Sida spinosa L.
Settings: active ingredient 1000 g/ha, observed 18th to 23rd day, 0 = non-treated, 100 = complete kill

Compound | Growth controlling degree (%) Prickly sida
CC(C)C(c1cnccc1C(F)(F)F)N(C)C(=O)Cc1cccc(Br)c1 (stereo not shown) [I-16] | 80%

Test system: crabgrass
Test: Test Example 2: soil surface treatment, upland pot test
Type: in vivo, Digitaria sanguinalis L.
Settings: active ingredient 1000 g/ha, observed 20th to 28th day
Summary of the method: as §1

Compound | Growth controlling degree (%) Crabgrass
CC(C)C(c1cnccc1C(F)(F)F)N(C)C(=O)Cc1cccc(Br)c1 (stereo not shown) [I-16] | 100%

Test system: soybean
Test: as above
Type: in vivo, Glycine max Merr.
Settings: active ingredient 1000 g/ha, observed 20th to 28th day
Summary of the method: as §1

Compound | Growth controlling degree (%) Soyabean
CC(C)C(c1cnccc1C(F)(F)F)N(C)C(=O)Cc1cccc(Br)c1 (stereo not shown) [I-16] | 0%
